Experimental data published in patent US5514694A, “Peptidyl ketoamides” (Georgia Tech Research Corp, priority 1993, dated 1996).
Where two headings read alike, the source gives them in different places.

What was measured:
Format in all cases: biochemical
cathepsin B = target: T1, cathepsin B (Homo sapiens, UniProt P07858); test: Cathepsin B inhibition (KI); settings: read-out: KI Cat B
T1 construct: purchased Sigma
Procedure: (§1) HEPES, heparin, and A23187 were obtained from Calbiochem. Suc-Leu-Tyr-AMC and chromogenic substrates were obtained from Sigma. Calpain I was purified from human erythrocytes according to the method of Kitahara (Kitahara et al., J. Biochem. 95, 1759-1766) omitting the Blue-Sepharose step. Calpain II from rabbit muscle and cathepsin B were purchased from Sigma. Papain was purchased from Calbiochem.
(§2) Peptide α-ketoamides were assayed as reversible enzyme inhibitors. Various concentrations of inhibitors in Me2 SO were added to the assay mixture which contained buffer and substrate. The reaction was started by the addition of the enzyme and the hydrolysis rates were followed spectrophotometrically or fluorimetrically.
(§3) Calpain I from human erythrocytes and calpain II from rabbit were assayed using Suc-Leu-Tyr-AMC Sasaki et al., J. Biol. Chem. 259, 12489-12494 (1984); incorporated herein by reference!, and the AMC (7-amino-4-methylcoumarin) release was followed fluorimetrically (excitation at 380 nm, and emmision at 460 nm). Calpains were assayed in 25 mM Tris pH=8.0, 10 mM CaC12. Fluorescence was followed using a Gilson FL-1A fluorometer or a Perkin-Elmer 203 Fluorescence spectrometer. Cathepsin B was assayed in 20 mM sodium acetate pH=5.2, 0.5 mM dithiothreitol using Bz-Phe-Val-Arg-p-nitroanilide as substrate. Alternately, cathepsin B was assayed with Z-Arg-Arg-AFC Barrett and Kirschke, Methods Enzymol. 80, 535-561 (1981); incorporated herein by reference!, and the AFC (7-amino-4-trifluoromethylcoumarin) release was followed fluorimetrically (excitation at 400 nm and emmision at 505 nm). Papain was assayed in 100 mM KPO4, 1 mM EDTA, 2.5 mM cysteine pH=6.0 using Bz-Arg-AMC or Bz-Arg-NA Kanaoka et al., Chem. Pharm. Bull. 25, 3126-3128 (1977); incorporated herein by reference! as a substrate. The AMC (7-amino-4-methylcoumarin) release was followed fluorimetrically (excitation at 380 nm, and emmision at 460 nm). Enzymatic hydrolysis rates were measured at various substrate and inhibitor concentrations, and KI values were determined by either Lineweaver-Burk plots or Dixon plots.
(§4) A 0.1M Hepes, 0.5M NaCl, pH 7.5 buffer was utilized for human leukocyte elastase (HLE), porcine pancreatic elastase (PPE), chymotrypsin and cathepsin G. A 0.1 Hepes, 0.01 M CaCl2, pH 7.5 buffer was utilized for trypsin, plasmin, and coagulation enzymes. A 50 mM Tris.HCl, 2 mM EDTA, 5 mM cysteine, pH 7.5 was used as a buffer for papain. A 88 mM KH2 PO4, 12 mM Na2 HPO4, 1.33 mM EDTA, 2.7 mM cysteine, pH 6.0 solution was used as a buffer for cathepsin B. A 20 mM Hepes, 10 mM CaCl2, 10 mM mercatoethanol, pH 7.2 buffer was utilized for calpain I and calpain II.

calpain II from rabbit = test: Calpain II inhibition, Suc-Leu-Tyr-AMC hydrolysis (KI); settings: for Ki: read-out: KI Cal II
Procedure: as §1, §2, §3, §4

[1] = target: T2, Calpain I from human erythrocytes (Homo sapiens, UniProt P07384); test: Calpain I inhibition, Suc-Leu-Tyr-AMC hydrolysis (KI); settings: read-out: KI Cal I
T2 construct: Calpain I was purified from human erythrocytes; from tissue; host or cells: human erythrocytes
T2 sequence (P07384 1-714): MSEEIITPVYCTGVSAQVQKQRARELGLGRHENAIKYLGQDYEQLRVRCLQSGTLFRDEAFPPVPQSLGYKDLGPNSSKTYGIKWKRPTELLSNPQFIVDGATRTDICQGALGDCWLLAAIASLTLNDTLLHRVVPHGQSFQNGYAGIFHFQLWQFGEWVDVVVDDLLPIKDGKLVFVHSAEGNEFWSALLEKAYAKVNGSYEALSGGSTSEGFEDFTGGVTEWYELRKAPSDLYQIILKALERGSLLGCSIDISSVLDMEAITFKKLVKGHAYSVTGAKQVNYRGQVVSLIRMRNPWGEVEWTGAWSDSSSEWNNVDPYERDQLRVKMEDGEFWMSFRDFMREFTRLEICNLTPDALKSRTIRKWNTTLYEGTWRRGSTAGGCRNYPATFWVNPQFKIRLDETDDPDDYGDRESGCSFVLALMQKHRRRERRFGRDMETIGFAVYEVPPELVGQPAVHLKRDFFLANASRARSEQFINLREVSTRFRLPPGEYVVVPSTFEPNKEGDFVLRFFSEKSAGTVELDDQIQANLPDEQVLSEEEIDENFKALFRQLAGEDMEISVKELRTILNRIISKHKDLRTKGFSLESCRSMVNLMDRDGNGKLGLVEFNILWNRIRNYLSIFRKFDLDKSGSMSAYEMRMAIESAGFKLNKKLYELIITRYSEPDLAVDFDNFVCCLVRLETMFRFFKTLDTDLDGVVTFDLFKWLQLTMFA
T2 sequence (P04632 1-268 partner): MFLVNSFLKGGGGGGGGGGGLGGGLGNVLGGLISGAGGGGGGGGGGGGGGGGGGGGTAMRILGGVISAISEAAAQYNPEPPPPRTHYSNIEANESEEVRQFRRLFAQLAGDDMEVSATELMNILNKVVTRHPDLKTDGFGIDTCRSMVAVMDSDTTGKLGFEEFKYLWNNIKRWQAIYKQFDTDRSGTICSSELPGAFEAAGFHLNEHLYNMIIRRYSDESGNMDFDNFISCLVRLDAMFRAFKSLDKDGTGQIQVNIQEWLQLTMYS
Procedure: as §1, §2, §3, §4

[2] = Table 2, Z-Leu--AA--CONH--CH2 CH(OH)-R

Ki (cathepsin B; Table 1, Z-Leu--AA--CONHR) | Ki (calpain II from rabbit; Table 1, Z-Leu--AA--CONHR) | Ki ([1]; Table 1, Z-Leu--AA--CONHR) | Compound | other results
1.2 µM | 0.076 µM | – | CCC(NC(=O)[C@H](CC(C)C)NC(=O)OCc1ccccc1)C(=O)C(=O)NCCc1cccn1C (stereo partly drawn) [Z-Leu-Abu-CONH--(CH2)2-2-(N-Methylpyrrole)] | –
– | – | – | CC(C)CC(NC(=O)C(c1ccccc1)c1ccccc1)C(=O)NC(Cc1ccccc1)C(=O)C(=O)NCCCN1CCOCC1 (stereo not drawn) [Ph2 CHCO-Leu-Phe-CONH--(CH2)3 -4-Morpholinyl] | Ki (cathepsin B; Table 3, M1 CO-Leu--AA--CONH-R): 3.8 µM; Ki (calpain II from rabbit; Table 3, M1 CO-Leu--AA--CONH-R): 0.074 µM; Ki ([1]; Table 3, M1 CO-Leu--AA--CONH-R): 0.76 µM
– | – | – | CC(C)CC(NC(=O)C(c1ccccc1)c1ccccc1)C(=O)NC(Cc1ccccc1)C(=O)C(=O)NCc1ccccn1 (stereo not drawn) [Ph2 CH-CO-Leu-Phe-CONH-CH2 -2-pyridyl, Ph2 CHCO-Leu-Phe-CONH--CH2 -2-Pyridyl] | Ki (cathepsin B; Table 3, M1 CO-Leu--AA--CONH-R): 2.2 µM; Ki (calpain II from rabbit; Table 3, M1 CO-Leu--AA--CONH-R): 0.36 µM; Ki ([1]; Table 3, M1 CO-Leu--AA--CONH-R): 1.1 µM
– | – | – | CCC(NC(=O)C(CC(C)C)NC(=O)OCc1ccccc1)C(=O)C(=O)NCC(O)c1ccccc1 (stereo not drawn) [Z-Leu-Abu-CONH-CH2 CH(OH)-Ph, Z-Leu-Abu-CONH--CH2 CH(OH)Ph] | Ki (cathepsin B; [2]): 0.37 µM; inhibition of calpain II, in words (calpain II from rabbit): best inhibitor for calpain II; Ki (calpain II from rabbit; [2]): 0.015 µM; Ki [1, 2]: 1.1 µM
2.5 µM | – | 1 µM | CCC(NC(=O)[C@H](CC(C)C)NC(=O)OCc1ccccc1)C(=O)C(=O)NCCN1CCOCC1 (stereo partly drawn) [Z-Leu-Abu-CONH-(CH2)2 -4-morpholinyl, Z-Leu-Abu-CONH--(CH2)2 -4-Morpholinyl] | –
3 µM | 0.017 µM | 0.64 µM | CCC(NC(=O)C(CC(C)C)NC(=O)OCc1ccccc1)C(=O)C(=O)NCc1ccccn1 (stereo not drawn) [Z-Leu-Abu-CONH-CH2 -2-pyridyl, Z-Leu-Abu-CONH--CH2 -2-Pyridyl] | inhibition of calpain II, in words (calpain II from rabbit): best inhibitor of calpain II
0.31 µM | 0.086 µM | 0.11 µM | Z-Leu-Abu-CONH--(CH2)2 C6 H4 (3-OCH3) [Z-Leu-Abu-CONH-(CH2)2 C6 H4 (3-OCH3)] | –
0.63 µM | – | 0.13 µM | CC[C@H](NC(=O)[C@H](CC(C)C)NC(=O)OCc1ccccc1)C(=O)C(=O)NCCc1ccccc1OC [Z-Leu-Abu-CONH-(CH2)2 C6 H4 (2-OCH3), Z-Leu-Abu-CONH--(CH2)2 C6 H4 (2-OCH3)] | –
4.2 µM | 0.1 µM | 0.25 µM | CCCC(NC(=O)C(CC(C)C)NC(=O)OCc1ccccc1)C(=O)C(=O)NCCCN1CCOCC1 (stereo not drawn) [Z-Leu-Nva-CONH-(CH2)3 -4-morpholinyl, Z-Leu-Nva-CONH--(CH2)3 -4-Morpholinyl] | –
9.9 µM | 0.068 µM | 0.29 µM | CCC(NC(=O)C(CC(C)C)NC(=O)OCc1ccccc1)C(=O)C(=O)NCCCn1ccnc1 (stereo not drawn) [Z-Leu-Abu-CONH-(CH2)3 -1-imidazolyl, Z-Leu-Abu-CONH--(CH2)3 -1-Imidazolyl] | –
0.27 µM | 0.65 µM | – | CC(C)CC(NC(=O)OCc1ccccc1)C(=O)NC(Cc1ccccc1)C(=O)C(=O)NCc1ccccn1 (stereo not drawn) [Z-Leu-Phe-CONH-CH2 -2-pyridyl, Z-Leu-Phe-CONH--CH2 -2-Pyridyl] | –
6.4 µM | 0.11 µM | 1.1 µM | CCC(NC(=O)C(CC(C)C)NC(=O)OCc1ccccc1)C(=O)C(=O)NCc1ccncc1 (stereo not drawn) [Z-Leu-Abu-CONH-CH2 -4-pyridyl, Z-Leu-Abu-CONH--CH2 -4-Pyridyl] | inhibition of calpain II, in words (calpain II from rabbit): substantially poorer inhibitors
4.5 µM | 0.066 µM | 0.33 µM | CCC(NC(=O)C(CC(C)C)NC(=O)OCc1ccccc1)C(=O)C(=O)NCC1CCCO1 (stereo not drawn) [Z-Leu-Abu-CONH-CH2 -2-tetrahydrofuryl, Z-Leu-Abu-CONH--CH2 -2-Tetrahydrofuryl] | –
– | – | – | CCC(NC(=O)C(CC(C)C)NC(=O)C(c1ccccc1)c1ccccc1)C(=O)C(=O)NCCCN1CCOCC1 (stereo not drawn) [Ph2 CHCO-Leu-Abu-CONH--N--(CH2)3 -Morpholinyl] | Ki (cathepsin B; Table 3, M1 CO-Leu--AA--CONH-R): 2.3 µM; Ki (calpain II from rabbit; Table 3, M1 CO-Leu--AA--CONH-R): 0.11 µM; Ki ([1]; Table 3, M1 CO-Leu--AA--CONH-R): 0.8 µM
1.2 µM | 0.12 µM | – | CCC(NC(=O)C(CC(C)C)NC(=O)OCc1ccccc1)C(=O)C(=O)NCc1cccnc1 (stereo not drawn) [Z-Leu-Abu-CONH-CH2 -3-pyridyl, Z-Leu-Abu-CONH--CH2 -3-Pyridyl] | inhibition of calpain II, in words (calpain II from rabbit): substantially poorer inhibitors
8 µM | – | 0.31 µM | CCC(NC(=O)C(CC(C)C)NC(=O)OCc1ccccc1)C(=O)C(=O)NCCCN1CCc2ccccc2C1 (stereo not drawn) [Z-Leu-Abu-CONH--(CH2)3 -2-Tetrahydroisoquinolinyl] | –
0.34 µM | 0.023 µM | 0.11 µM | CC(C)CC(NC(=O)OCc1ccccc1)C(=O)NC(Cc1ccccc1)C(=O)C(=O)NCc1ccc2ccccc2n1 (stereo not drawn) [Z-Leu-Phe-CONH-CH2 -2-quinolinyl, Z-Leu-Phe-CONH--CH2 -2-Quinolinyl] | –
1.8 µM | 0.022 µM | 2.3 µM | CC[C@H](NC(=O)[C@H](CC(C)C)NC(=O)OCc1ccccc1)C(=O)C(=O)NCc1cc(OC)cc(OC)c1 [Z-Leu-Abu-CONH-CH2 C6 H3 (3,5-(OCH3)2), Z-Leu-Abu-CONH--CH2 C6 H3 (3,5-(OCH3)2] | –
0.44 µM | 0.046 µM | 0.12 µM | CCC(NC(=O)C(CC(C)C)NC(=O)OCc1ccccc1)C(=O)C(=O)NCCc1ccc(OC)cc1 (stereo not drawn) [Z-Leu-Abu-CONH-(CH2)2 C6 H4 (4-OCH3), Z-Leu-Abu-CONH--(CH2)2 C6 H4 (4-OCH3)] | –
2 µM | 0.27 µM | 1.2 µM | CCC(NC(=O)C(CC(C)C)NC(=O)OCc1ccccc1)C(=O)C(=O)NCCCN1CCCC1=O (stereo not drawn) [Z-Leu-Abu-CONH--(CH2)3 -1-Pyrrolidinyl-2-one] | –
0.89 µM | 0.069 µM | 0.42 µM | CCC(NC(=O)C(CC(C)C)NC(=O)OCc1ccccc1)C(=O)C(=O)NCC1(C)CC(O)CC(C)(C)C1 (stereo not drawn) [Z-Leu-Abu-CONH--CH2 --C6 H8 (1,3,3-(CH3)3 -5-OH)] | –
0.28 µM | 0.051 µM | – | CC[C@H](NC(=O)[C@H](CC(C)C)NC(=O)OCc1ccccc1)C(=O)C(=O)NCCCCCO [Z-Leu-Abu-CONH-(CH2)5 OH, Z-Leu-Abu-CONH--(CH2)5 OH] | –
